Read-outs that look alike come from different tables or passages of the source.
Experiments:
[1] = system: HSV-1 Strain F in Vero or MRC5 cells; experiment: Viral qPCR assay HSV-1 (V0/V1, V2/V3), EC50; format: cell-based; settings: 10%
How it was run: (§1)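 Infected cells added to compounds (10-point 3-fold series), ~72 h at 37 °C, then lysed; viral genomes by TaqMan qPCR against plasmid standard, normalized to PPIA in V0/V1 only, EC50 from 4-parameter fit. HCMV AD169, 0.05-0.1 pfu/cell, ± 50% FBS; VZV 0.04-0.1 pfu/cell; HSV-1 F 0.0005-0.004 pfu/cell.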

[2] = system: HCMV Strain AD169 in MRC-5 cells; experiment: Viral qPCR assay HCMV (V0/V1, V2/V3), EC50; format: cell-based; settings: Human betaherpesvirus 5, AD169, MRC5, viral qPCR assay of Example 191; read-out: HCMV Cell (EC50)
How it was run: as §1

[3] = system: VZV in MeWo or MRC5 cells; experiment: Viral qPCR assay VZV (V0/V1, V2/V3), EC50; format: cell-based; settings: 10%
How it was run: as §1

[4] = biological target: T1, Human cytomegalovirus DNA polymerase (Human cytomegalovirus, UniProt P08546); experiment: HCMV polymerase assay (AlphaLISA, IC50); format: biochemical; settings: polymerase assay of Example 190
T1 construct: made in house; host or cells: SF21 insect cells (baculovirus vector)
How it was run: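 Baculovirus-expressed polymerase (HCMV 0.2 nM, VZV 0.4 nM final) preincubated 30 min at room temperature with compound in pH 7.5 HEPES buffer; reaction started with 1.6 nM DIG-primer/template and nM dNTPs including biotin-dUTP, run 60 min at 37° C. Incorporation detected by AlphaLISA; IC50 from 4-parameter fit.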

[5] = biological target: T2, varicella zoster virus DNA polymerase (Varicella-zoster virus, UniProt P09252); experiment: VZV polymerase assay (AlphaLISA, IC50); format: biochemical; settings: polymerase assay of Example 190
T2 construct: made in house; host or cells: SF21 insect cells (baculovirus vector)
Method: Human cytomegalovirus and varicella zoster virus DNA polymerases were expressed via baculovirus vector in SF21 cells and purified. Heterodimeric nucleic acid substrate used in the herpesvirus polymerase reactions was generated by annealing a 59-mer template to a 17-mer digoxigenin-labeled primer. Polymerase (HCMV final concentration of 0.2 nM; VZV final concentration of 0.4 nM) was combined with an inhibitor compound or DMSO in assay buffer (10 mM HEPES, pH 7.5, 25 mM KCl, 25 mM NaCl, 5 mM MgCl2, 5% glycerol, 0.67 mg/ml bovine serum albuminutes, and 1 mM tris(2-carboxyethyl)phosphine), and this mixture was pre-incubated for 30 minutes at room temperature in 384-well microtiter plates. The polymerization reaction was initiated by the addition of template/primer substrate (final concentration: 1.6 nM), and dNTPs (final concentration: 24 nM dCTP, 24 nMdGTP, 16 nM dATP, 16 nM dTTP, and 0.8 nM biotin-dUTP). After 60 minutes incubation at 37° C., reactions were terminated with quench buffer (25 mM HEPES pH 7.5, 100 mM NaCl, 0.25% Tween-20, 12 mM EDTA, and 1 mg/ml bovine serum albumin). Incorporation of biotinylated UTP was detected with 2.5-5 ug/ml anti-DIG AlphaLISA acceptor beads and 5-10 ug/ml streptavidin AlphaLISA donor beads (Perkin Elmer). Compound effects were normalized to the window defined by the controls (DMSO only and pre-quenched wells), and were fit using a 4-parameter algorithm to report an IC50.

[6] = Human alphaherpesvirus 1, MRC5, MRC5 cells, read-out: HSV1 Cell (EC50) MRC5 10%
[7] = Human alphaherpesvirus 1, Vero, VERO cells, read-out: HSV1 Cell (EC50) VERO 10%
[8] = Human alphaherpesvirus 3, MRC5, MRC5 cells, read-out: VZV Cell (EC50) MRC5 10%
[9] = Human alphaherpesvirus 3, MeWo, MEWO cells, read-out: VZV Cell (EC50) MEWO 10%

T1 sequence (P08546 whole entry): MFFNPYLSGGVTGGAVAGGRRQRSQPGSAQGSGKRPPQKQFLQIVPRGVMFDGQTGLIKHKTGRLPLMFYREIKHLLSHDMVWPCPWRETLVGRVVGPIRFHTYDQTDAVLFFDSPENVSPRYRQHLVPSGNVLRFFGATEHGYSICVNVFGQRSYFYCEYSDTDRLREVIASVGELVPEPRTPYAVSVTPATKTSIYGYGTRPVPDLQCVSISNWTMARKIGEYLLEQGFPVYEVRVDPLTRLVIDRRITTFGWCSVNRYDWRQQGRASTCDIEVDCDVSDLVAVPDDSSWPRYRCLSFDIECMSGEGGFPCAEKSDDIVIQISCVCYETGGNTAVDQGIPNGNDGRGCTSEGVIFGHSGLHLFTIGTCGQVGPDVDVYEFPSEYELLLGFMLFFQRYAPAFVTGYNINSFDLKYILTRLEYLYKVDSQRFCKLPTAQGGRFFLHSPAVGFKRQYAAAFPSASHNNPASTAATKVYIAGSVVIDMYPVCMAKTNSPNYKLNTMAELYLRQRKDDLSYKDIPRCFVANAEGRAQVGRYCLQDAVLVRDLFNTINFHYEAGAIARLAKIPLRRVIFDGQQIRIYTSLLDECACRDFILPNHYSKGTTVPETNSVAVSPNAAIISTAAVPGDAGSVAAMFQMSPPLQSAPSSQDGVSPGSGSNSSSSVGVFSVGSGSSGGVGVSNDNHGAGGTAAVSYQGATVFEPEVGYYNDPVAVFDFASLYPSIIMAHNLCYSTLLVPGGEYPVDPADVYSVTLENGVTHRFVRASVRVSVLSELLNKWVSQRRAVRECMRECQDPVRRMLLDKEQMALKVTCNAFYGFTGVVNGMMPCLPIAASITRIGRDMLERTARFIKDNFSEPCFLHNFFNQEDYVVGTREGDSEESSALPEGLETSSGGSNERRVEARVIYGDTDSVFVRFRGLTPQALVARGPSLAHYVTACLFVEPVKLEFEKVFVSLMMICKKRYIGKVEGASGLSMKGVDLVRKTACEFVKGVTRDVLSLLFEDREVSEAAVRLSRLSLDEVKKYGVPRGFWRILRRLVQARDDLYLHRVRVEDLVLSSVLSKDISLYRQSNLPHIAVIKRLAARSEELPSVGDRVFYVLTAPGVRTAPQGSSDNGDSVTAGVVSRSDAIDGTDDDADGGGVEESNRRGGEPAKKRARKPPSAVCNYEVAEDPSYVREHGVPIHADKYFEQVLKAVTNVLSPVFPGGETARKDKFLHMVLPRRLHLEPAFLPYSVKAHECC
T2 sequence (P09252 whole entry): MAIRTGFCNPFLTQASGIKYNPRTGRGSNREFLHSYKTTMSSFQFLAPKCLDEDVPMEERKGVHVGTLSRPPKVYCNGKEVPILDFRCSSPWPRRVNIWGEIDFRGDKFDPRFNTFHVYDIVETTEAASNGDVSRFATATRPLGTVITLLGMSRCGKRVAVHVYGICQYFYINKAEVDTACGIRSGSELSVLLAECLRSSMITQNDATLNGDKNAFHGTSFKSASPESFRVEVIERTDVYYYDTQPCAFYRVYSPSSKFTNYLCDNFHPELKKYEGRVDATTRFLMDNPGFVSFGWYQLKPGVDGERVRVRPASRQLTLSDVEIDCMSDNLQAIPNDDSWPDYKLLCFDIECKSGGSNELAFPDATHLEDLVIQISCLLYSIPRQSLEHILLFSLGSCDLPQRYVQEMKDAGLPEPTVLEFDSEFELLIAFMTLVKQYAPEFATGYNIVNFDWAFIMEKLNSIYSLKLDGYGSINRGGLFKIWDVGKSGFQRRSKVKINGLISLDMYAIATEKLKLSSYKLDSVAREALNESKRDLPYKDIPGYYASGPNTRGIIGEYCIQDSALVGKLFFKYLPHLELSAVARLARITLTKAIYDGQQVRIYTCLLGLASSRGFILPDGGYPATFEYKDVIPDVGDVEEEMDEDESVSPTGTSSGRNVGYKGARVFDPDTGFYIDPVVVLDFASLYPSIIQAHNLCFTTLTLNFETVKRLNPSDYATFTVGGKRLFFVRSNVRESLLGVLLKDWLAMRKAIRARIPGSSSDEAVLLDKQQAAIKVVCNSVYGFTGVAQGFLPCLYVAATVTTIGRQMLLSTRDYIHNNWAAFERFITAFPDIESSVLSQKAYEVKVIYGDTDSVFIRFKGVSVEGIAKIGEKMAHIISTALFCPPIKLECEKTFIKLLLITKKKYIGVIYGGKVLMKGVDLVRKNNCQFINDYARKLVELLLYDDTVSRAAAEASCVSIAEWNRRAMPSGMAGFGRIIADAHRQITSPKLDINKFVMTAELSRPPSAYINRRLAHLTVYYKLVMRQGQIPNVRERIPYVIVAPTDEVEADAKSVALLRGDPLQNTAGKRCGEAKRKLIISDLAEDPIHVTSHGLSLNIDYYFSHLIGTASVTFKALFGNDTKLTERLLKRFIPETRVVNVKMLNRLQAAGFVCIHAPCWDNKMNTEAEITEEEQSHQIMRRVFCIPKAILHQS

Row | Structure (SMILES) | IC50 [4] | IC50 [5] | EC50 [1, 6] | EC50 [1, 7] | EC50 [2] | EC50 [3, 8] | EC50 [3, 9]
1 | O=C(NCc1ccc(Cl)cc1)c1cc(O[C@H]2CCN3C(=O)OC[C@@H]3C2)c(-c2cc[nH]n2)cn1 [Compound 18] | 15.7 nM | 10.5 nM | 194 nM | 836 nM | 120 nM | 126 nM | 392 nM
2 | O=C(NCc1ccc(Cl)cc1)c1cc(O[C@H]2CCN3C(=O)OC[C@@H]3C2)c(-c2cnn(CC(F)F)c2)cn1 [Compound 27] | 14.1 nM | 12.5 nM | – | 300 nM | 138 nM | – | 248 nM
3 | CN(CCCO)Cc1cnc(C(=O)NCc2ccc(Cl)cc2)cc1O[C@H]1CCN2C(=O)OC[C@@H]2C1 [Compound 136] | 214 nM | 152 nM | – | 9260 nM | 989 nM | – | 386 nM
4 | Cc1cnn(-c2cnc(C(=O)NCc3ccc(Cl)cc3)cc2O[C@H]2CCN3C(=O)OC[C@@H]3C2)c1 [Compound 105] | 223 nM | 139 nM | – | 655 nM | 1300 nM | – | 870 nM
5 | CC(=O)N1CCC(Oc2cc(C(=O)NCc3ccc(Cl)cc3)ncc2-c2cnn(C)c2)CC1 [Compound 6] | 79 nM | 30.8 nM | – | 144 nM | 342 nM | – | 84.5 nM
6 | CO[C@H]1CN(Cc2cnc(C(=O)NCc3ccc(Cl)cc3)cc2O[C@H]2CCN3C(=O)OC[C@@H]3C2)[C@@H]1C (mixture of isomers) [Compound 137] | 35 nM | 36.7 nM | – | 602 nM | 575 nM | 1420 nM | –
7 | COC1CC(c2cnc(C(=O)NCc3ccc(Cl)cc3)cc2O[C@H]2CCN3C(=O)OC[C@@H]3C2)C1 (stereo partly drawn) [Compound 110] | 22 nM | 4.84 nM | 998 nM | – | 354 nM | 1520 nM | –
8 | Cn1cc(-c2cnc(C(=O)NCc3ccc(F)c(F)c3F)cc2O[C@H]2CCN3C(=O)OC[C@@H]3C2)cn1 [Compound 94] | 31.7 nM | 21.4 nM | 412 nM | 368 nM | 111 nM | 427 nM | 155 nM
9 | CC(C)n1cc(-c2cnc(C(=O)NCc3ccc(Cl)cc3)cc2O[C@H]2CCN3C(=O)OC[C@@H]3C2)cn1 [Compound 21] | 15.6 nM | 13.9 nM | – | 206 nM | 282 nM | – | 205 nM
10 | COC1CN(c2cnc(C(=O)NCc3ccc(Cl)cc3)cc2O[C@H]2CCN3C(=O)OC[C@@H]3C2)C1 [Compound 120] | 16.2 nM | 2.6 nM | 434 nM | – | 210 nM | 441 nM | –

Now from value to compound, other results behind:

Row | IC50 [4] | IC50 [5] | Structure (SMILES) | EC50 [1, 6] | EC50 [1, 7] | EC50 [2] | EC50 [3, 8] | EC50 [3, 9]
11 | 15.9 nM | 6.03 nM | O=C(NCc1ccc(Cl)cc1)c1cc(O[C@H]2CCN3C(=O)OC[C@@H]3C2)c(-c2cscn2)cn1 [Compound 37] | 100 nM | 35.6 nM | 115 nM | 130 nM | 20.8 nM
12 | 37.7 nM | 20 nM | O=C(NCc1ccc(Cl)cc1)c1cc(O[C@H]2CCN3C(=O)OC[C@@H]3C2)c(N2CC(F)C2)cn1 [Compound 125] | 531 nM | – | 198 nM | 720 nM | –
13 | 124 nM | 95.4 nM | CC1(O)CCN(Cc2cnc(C(=O)NCc3ccc(Cl)cc3)cc2O[C@H]2CCN3C(=O)OC[C@@H]3C2)C1 (mixture of isomers) [Compound 134] | – | 5850 nM | 1930 nM | 3970 nM | –
14 | 25.9 nM | 26.7 nM | N#Cc1ccc(CNC(=O)c2cc(O[C@H]3CCN4C(=O)OC[C@@H]4C3)c(-c3cnn(C(F)F)c3)cn2)c(F)c1 [Compound 84] | 463 nM | 520 nM | 350 nM | 345 nM | 66.8 nM
15 | 117 nM | 27.8 nM | CC(=O)N1CCC(Oc2cc(C(=O)NCc3ccc(Cl)cc3)ncc2-c2cnn(C(F)F)c2)CC1 [Compound 70] | – | 430 nM | 1220 nM | – | 298 nM
16 | 5.28 nM | 6.25 nM | CC(=O)N1CC[C@@H](Oc2cc(C(=O)NCc3ccc(Cl)cc3)ncc2-c2cnc(C)o2)C[C@H]1C [Compound 165] | 122 nM | – | 141 nM | 138 nM | –
17 | 238 nM | 181 nM | CC(=O)N1CCC(Oc2cc(C(=O)NCc3ccc(Cl)cc3)ncc2-c2ccn(C)n2)CC1 [Compound 61] | – | 108 nM | 484 nM | – | 81.6 nM
18 | 18.3 nM | 2.37 nM | N#Cc1cnc(C(=O)NCc2ccc(Cl)cc2)cc1O[C@H]1CCN2C(=O)OCC[C@@H]2C1 [Compound 164] | 469 nM | – | 436 nM | 684 nM | –
19 | 5.46 nM | 3.36 nM | Cn1cc(-c2cnc(C(=O)NCc3ccc(Cl)c(F)c3)cc2O[C@H]2CCN3C(=O)OC[C@@H]3C2)cn1 [Compound 96] | 71 nM | 118 nM | 86.3 nM | 132 nM | 53.6 nM
20 | 30 nM | 28.3 nM | N#Cc1cnc(C(=O)NCc2ccc(Cl)cc2)cc1O[C@H]1CCN2C(=O)OC[C@@H]2C1 [Compound 127] | 800 nM | 234 nM | 349 nM | 1110 nM | 239 nM
21 | 24 nM | 3.07 nM | COC(C)(C)Cc1cnc(C(=O)NCc2ccc(Cl)cc2)cc1O[C@H]1CCN2C(=O)OC[C@@H]2C1 [Compound 107] | 473 nM | – | 549 nM | 582 nM | –
22 | 43.9 nM | 40.9 nM | O=C(NCc1ccc(Cl)cc1)c1cc(O[C@H]2CCN3C(=O)OC[C@@H]3C2)c(-c2ccn(CC(F)(F)F)n2)cn1 [Compound 14] | – | 319 nM | 563 nM | – | 234 nM
23 | 10.3 nM | 7.39 nM | O=C(NCc1ccc(Cl)cc1)c1cc(O[C@H]2CCN3C(=O)OC[C@@H]3C2)c(-c2cnn(C(F)F)c2)cn1 [Compound 3] | 127 nM | 70.9 nM | 180 nM | 170 nM | 112 nM

Reference: US20240067657A1, “AMIDO-SUBSTITUTED PYRIDYL COMPOUNDS AND METHODS OF USE THEREOF FOR THE TREATMENT OF HERPESVIRUSES” (Merck Sharp & Dohme LLC, priority 2020, published 2024)
